Reference: patent US10420815B2, “Combinational therapy for synergistic inhibition of gram-positive and gram-negative bacteria” (priority 2015, dated 2019)
Several values for one entry are separate records, joined by “and”; a condition that tells them apart may be missing. Equal values may be shown once. Entries after “also recorded” stand apart in the source; their conditions may differ. Read-outs that look alike come from different tables or passages of the source.

Experiments:
Type in all cases: cell-based, Staphylococcus aureus
[1] = system: MRSA (ATCC 33593); assay: microbe, parasite or virus in culture; settings: for fold decrease of bacitracin MBC by antioxidant: compared to bacitracin alone
Excerpt: (§1) MRSA (ATCC 33593), MSSA (ATCC 29213), and MRSA USA300 (BAA-1680) strains were purchased from the American Type Culture Collection (ATCC; Manassas, Va.). Eight clinical isolates of MRSA were obtained from the Culture Collection of Antimicrobial Resistant Microbes, Korea National Research Resource Center (KNRRC). Salmonella enterica Typhimurium LT2 was purchased from ATCC, and Escherichia coli O157:H7 is a kind gift from Dr. Sangryeol Ryu (Seoul National University, South Korea). All S. aureus strains were maintained in Trypticase Soy (TS) medium, and E. coli O157:H7 and Salmonella were routinely grown aerobically on Luria-Bertani (LB) media at 37° C. For measuring growth kinetics, an overnight culture of MRSA in Mueller-Hinton (MH) broth was diluted 100-fold in fresh MH broth and cultured until early exponential phase. The culture (200 μl) was transferred to each well of a sterile 96-well plate and incubated at 37° C. with bacitracin alone, alkyl gallate alone, and combination of bacitracin/alkyl gallates at various concentrations. The optical density at 600 nm (OD600) was measured every hour with FLUOstar® Omega (BMG Labtech, Germany).
(§2) Broth micro dilution assays were performed to determine the minimum inhibitory concentrations (MIC) accordance to the M7-A7 protocol of the Clinical and Laboratory Standards Institute (CLSI) guidelines^28. The susceptibility test was carried out with an initial bacterial inoculum of 1.5×10^5 CFU ml^−1. Alkyl gallates and bacitracin were serially diluted in a polystyrene 96 well plate and the plate was incubated at 37° C. for 24 h. Minimum bactericidal concentration (MBC) was determined by spotting 10 μl of cultures from MIC tests onto MH agar and incubated aerobically at 37° C.
(§3) MICs were determined with MRSA and methicillin-sensitive S. aureus (MSSA) using a broth dilution method as described above.
(§4) MRSA and MSSA were cultured overnight with antioxidants (0.5 μg/ml) and bacitracin at various concentrations and 10 μL of the culture was spotted on MH agar plates and incubated aerobically at 37° C. to observe the bacterial viability. The results in FIGS. 9A, 9B, 9C and 9D (photographs of plates) show the Minimal Bactericidal Concentrations (MBCs) for indicated antioxidants. Bacitracin killed MRSA and MSSA at concentrations greater than or equal to 2 μg/mi.

[2] = system: MSSA (ATCC 29213); assay: MIC (broth dilution) and MBC (spotting) of phenolic antioxidants and bacitracin; settings: for MIC: antioxidant alone; for fold decrease of bacitracin MBC by antioxidant: compared to bacitracin alone
Excerpt: as §1, §2, §3, §4

[3] = system: MRSA (normal MRSA strain, not USA300); assay: MRSA growth (optical density) with bacitracin and phenolic antioxidants; settings: for growth of MRSA with bacitracin plus antioxidant: bacitracin 0.002 μg/mL, antioxidant 0.5 μg/mL, FIG. 6; for optical density of MRSA after 18 h culture: inhibition of growth in combination with bacitracin: bacitracin 0.002 μg/ml (ca. 0.0002 U), antioxidant 0.5 μg/ml, FIG. 8
Excerpt: as §1
MRSA were grown with bacitracin (0.002 μg/mL) with antioxidant (as shown) at 0.5 μg/mL.
FIG. 7A is growth with no added bacitracin or lauryl gallate.
The optical density of MRSA was measured after 18 h culture with bacitracin (0.002 μg/ml) and antioxidants (as indicated at 0.5 μg/ml). Also measured were controls with no additions, with bacitracin alone and with antioxidant alone. FIGS. 8A, 8B, 8C and 8D are graphs illustrating the results.

[4] = system: MRSA 3795; assay: microbe, parasite or virus in culture
Excerpt: as §1, §2

[5] = system: MRSA 3799; assay: microbe, parasite or virus in culture
Excerpt: as §1, §2

[6] = system: MRSA 3823; assay: microbe, parasite or virus in culture
Excerpt: as §1, §2

[7] = system: MRSA 3865; assay: microbe, parasite or virus in culture
Excerpt: as §1, §2

[8] = system: MRSA 3876; assay: microbe, parasite or virus in culture
Excerpt: as §1, §2

[9] = system: MRSA 3903; assay: microbe, parasite or virus in culture
Excerpt: as §1, §2

[10] = system: MRSA 3A585; assay: microbe, parasite or virus in culture
Excerpt: as §1, §2

[11] = system: MRSA 3095; assay: microbe, parasite or virus in culture; settings: Staphylococcus aureus; MRSA 3095 (human/skin); read-out: MIC
Excerpt: as §1, §2

[12] = Staphylococcus aureus, MRSA, antioxidant alone, read-out: MIC
[13] = Staphylococcus aureus, read-out: MIC
[14] = Staphylococcus aureus, MRSA 3795 (human/nose), read-out: MIC
[15] = Staphylococcus aureus, MRSA 3799 (human/nose), read-out: MIC
[16] = Staphylococcus aureus, MRSA 3823 (human/nose), read-out: MIC
[17] = Staphylococcus aureus, MRSA 3865 (human/skin), read-out: MIC
[18] = Staphylococcus aureus, MRSA 3876 (human/skin), read-out: MIC
[19] = Staphylococcus aureus, MRSA 3903 (human/skin), read-out: MIC

Molecule: Cc1cc(C(C)(C)C)c(O)c(C(C)(C)C)c1 [Butylated hydroxytoluene, butylated hydroxytoluene]
- synergistic killing with bacitracin ([1]; MRSA, antioxidant 0.5 μg/ml): did not generate any synergistic killing
- MIC [1, 12]: > 1020 µg/mL
- MIC [2, 13]: 1020 µg/mL
- synergistic killing with bacitracin ([2]; antioxidant 0.5 μg/ml): did not generate any synergistic killing
- MIC [2]: >1024 µg/mL
- growth of MRSA with bacitracin plus antioxidant [3]: did not show any synergistic effects with bacitracin
- optical density of MRSA after 18 h culture: inhibition of growth in combination with bacitracin ([3]; listed as BHT): no synergistic inhibition of growth; also recorded: did not show any synergistic antimicrobial effects

Molecule: O=C(N[C@H](CO)[C@H](O)c1ccc([N+](=O)[O-])cc1)C(Cl)Cl [CL, chloramphenicol]
- MIC [4, 14]: ≥ 128 µg/mL
- MIC [5, 15]: ≥ 128 µg/mL
- MIC [6, 16]: ≥ 128 µg/mL
- MIC [7, 17]: ≥ 128 µg/mL
- MIC [8, 18]: < 0.12 µg/mL
- MIC [9, 19]: ≥ 128 µg/mL
- MIC ([10]; Staphylococcus aureus, MRSA 3A585 (human/blood), read-out: MIC): ≤ 0.25 µg/mL

Molecule: O=C(O)/C=C/c1ccc(O)c(O)c1 [Caffeic acid, caffeic acid]
- MIC [1, 12]: > 1020 µg/mL
- MIC [2, 13]: > 1020 µg/mL

Molecule: Oc1cc(O)c2c(c1)OC(c1ccc(O)c(O)c1)C(O)C2 (stereo not drawn) [Catechin(+), catechin]
- MIC ([1]; MRSA, antioxidant alone): >1024 µg/mL
- MIC [2]: >1024 µg/mL

Molecule: O=c1cc(-c2ccccc2)oc2cc(O)cc(O)c12 [Chrysin, chrysin]
- MIC [1, 12]: > 1020 µg/mL
- MIC [2, 13]: > 1020 µg/mL

Molecule: O=C(O)C=Cc1ccccc1 [Cinnamic acid, cinnamic acid]
- MIC [1, 12]: > 1020 µg/mL
- MIC [2, 13]: > 1020 µg/mL

Molecule: Oc1cc(O)c2c(c1)O[C@H](c1ccc(O)c(O)c1)[C@H](O)C2 [Epicatechin, epicatechin]
- MIC [1, 12]: > 1020 µg/mL
- MIC [2, 13]: > 1020 µg/mL

Molecule: O=C(O[C@@H]1Cc2c(O)cc(O)cc2O[C@@H]1c1cc(O)c(O)c(O)c1)c1cc(O)c(O)c(O)c1 [Epigallocatechin gallate, epigallocatechin gallate]
- fold decrease of bacitracin MBC by antioxidant ([1]; MRSA, antioxidant 0.5 μg/ml): > 32 fold
- MIC ([1]; MRSA, antioxidant alone): 512 µg/mL and 256 µg/mL
- fold decrease of bacitracin MBC by antioxidant ([2]; antioxidant 0.5 μg/ml): 16 fold
- MIC [2]: 128 µg/mL and 64 µg/mL
- growth of MRSA with bacitracin plus antioxidant [3]: significantly inhibited the growth of MRSA
- optical density of MRSA after 18 h culture: inhibition of growth in combination with bacitracin [3]: significantly inhibited MRSA

Molecule: COc1ccc([C@@H]2CC(=O)c3c(O)cc(O[C@@H]4O[C@H](CO[C@@H]5O[C@@H](C)[C@H](O)[C@@H](O)[C@H]5O)[C@@H](O)[C@H](O)[C@H]4O)cc3O2)cc1O [Hesperedin, hesperidin]
- MIC ([1]; MRSA, antioxidant alone): >1024 µg/mL
- MIC [2]: >1024 µg/mL

Molecule: O=c1c(O)c(-c2ccc(O)cc2O)oc2cc(O)cc(O)c12 [Morin, morin]
- MIC [1, 12]: > 1020 µg/mL
- MIC [2, 13]: > 1020 µg/mL

Molecule: CCn1cc(C(=O)O)c(=O)c2cc(F)c(N3CCNCC3)cc21 [NOR, norfloxacin]
- MIC [11]: ≥ 128 µg/mL
- MIC [4, 14]: 0.5 µg/mL
- MIC [5, 15]: 0.25 µg/mL
- MIC [6, 16]: 32 µg/mL
- MIC [7, 17]: ≥ 128 µg/mL
- MIC [8, 18]: 0.25 µg/mL
- MIC [9, 19]: 64 µg/mL

Molecule: O=C1C[C@@H](c2ccc(O)cc2)Oc2cc(O)cc(O)c21 [Narigenine, naringenin]
- MIC [1, 12]: > 1020 µg/mL
- MIC [2, 13]: > 1020 µg/mL

Molecule: O=c1c(O)c(-c2ccc(O)c(O)c2)oc2cc(O)cc(O)c12 [Quercetin, quercetin]
- MIC [1, 12]: > 1020 µg/mL
- MIC [2, 13]: > 1020 µg/mL

Molecule: O=C(O)c1ccccc1O [Salicylic acid, salicylic acid]
- MIC [1, 12]: > 1020 µg/mL
- MIC [2, 13]: > 1020 µg/mL

Molecule: COc1cc(/C=C/C(=O)O)cc(OC)c1O [Sinapic acid, sinapic acid]
- MIC ([1]; Staphylococcus aureus): > 1020 µg/mL
- MIC [2, 13]: > 1020 µg/mL

Molecule: CN(C)[C@@H]1C(O)=C(C(N)=O)C(=O)[C@@]2(O)C(O)=C3C(=O)c4c(O)cccc4[C@@](C)(O)[C@H]3C[C@@H]12 [TET, tetracycline]
- MIC ([4]; Staphylococcus aureus, MRSA): 16 µg/mL
- MIC ([5]; Staphylococcus aureus, MRSA): 64 µg/mL
- MIC ([6]; Staphylococcus aureus, MRSA): 64 µg/mL
- MIC ([7]; Staphylococcus aureus, MRSA): 32 µg/mL
- MIC ([8]; Staphylococcus aureus, MRSA): 16 µg/mL
- MIC ([9]; Staphylococcus aureus, MRSA): 128 µg/mL
- MIC ([10]; Staphylococcus aureus, MRSA): ≥ 8 µg/mL

Molecule: O=C(OC[C@H]1O[C@@H](OC(=O)c2cc(O)c(O)c(OC(=O)c3cc(O)c(O)c(O)c3)c2)[C@H](OC(=O)c2cc(O)c(O)c(OC(=O)c3cc(O)c(O)c(O)c3)c2)[C@@H](OC(=O)c2cc(O)c(O)c(OC(=O)c3cc(O)c(O)c(O)c3)c2)[C@@H]1OC(=O)c1cc(O)c(O)c(OC(=O)c2cc(O)c(O)c(O)c2)c1)c1cc(O)c(O)c(OC(=O)c2cc(O)c(O)c(O)c2)c1 [Tannic acid, tannic acid]
- fold decrease of bacitracin MBC by antioxidant ([1]; MRSA, antioxidant 0.5 μg/ml): 4 fold
- MIC ([1]; Staphylococcus aureus): 512 µg/mL
- MIC [1, 12]: 1020 µg/mL
- MIC [2, 13]: 256 µg/mL
- fold decrease of bacitracin MBC by antioxidant ([2]; antioxidant 0.5 μg/ml): 8 fold
- MIC [2]: 128 µg/mL
- growth of MRSA with bacitracin plus antioxidant [3]: significantly inhibited the growth of MRSA
- optical density of MRSA after 18 h culture: inhibition of growth in combination with bacitracin [3]: significantly inhibited MRSA

Molecule: O=C1c2c(O)cc(O)cc2O[C@H](c2ccc(O)c(O)c2)[C@H]1O [Taxifolin, taxifolin]
- MIC [1, 12]: > 1020 µg/mL
- MIC [2, 13]: > 1020 µg/mL

Molecule: COc1cc(C(=O)O)ccc1O [Vanillic acid, vanillic acid]
- MIC [1, 12]: > 1020 µg/mL
- MIC [2, 13]: > 1020 µg/mL

Molecule: gentamicin
- MIC ([4]; MRSA 3795 (human/nose)): ≥128 µg/mL
- MIC ([5]; MRSA 3799 (human/nose)): 32 µg/mL
- MIC ([6]; MRSA 3823 (human/nose)): ≥128 µg/mL
- MIC ([7]; MRSA 3865 (human/skin)): 32 µg/mL
- MIC ([8]; MRSA 3876 (human/skin)): 32 µg/mL
- MIC ([9]; MRSA 3903 (human/skin)): ≥128 µg/mL
- MIC ([10]; MRSA 3A585 (human/blood)): ≥8 µg/mL

Molecule: penicillin
- MIC ([4]; MRSA 3795 (human/nose)): 16 µg/mL
- MIC ([5]; MRSA 3799 (human/nose)): 8 µg/mL
- MIC ([6]; MRSA 3823 (human/nose)): 16 µg/mL
- MIC ([7]; MRSA 3865 (human/skin)): 16 µg/mL
- MIC ([8]; MRSA 3876 (human/skin)): 16 µg/mL
- MIC ([9]; MRSA 3903 (human/skin)): 32 µg/mL
